Experimental data as given in PMC5761471 (Journal of Pharmaceutical Analysis, 2014).
One block for each molecule: values may come before it.

How the values were obtained:
[1] = Bioequivalence study, oral 400 mg raltegravir tablets; format: in vivo, human; settings: healthy Indian subjects
[2] = Stability of raltegravir in spiked human plasma and processed extracts; format: in vitro ADME; settings: n=6
[3] = Stability of standard stock solutions; format: physicochemical; settings: stock solution in methanol, 25 °C
[4] = cited from earlier work
[5] = stated, not tested in this paper; cited from earlier work
[6] = Bench-top, room temperature (25 °C), 8 h, nominal 6.0 ng/mL
[7] = Bench-top, room temperature (25 °C), 8 h, nominal 5000 ng/mL
[8] = Dry extract in deep freezer at −20 °C for 65 h, nominal 6.0 ng/mL
[9] = Dry extract in deep freezer at −20 °C for 65 h, nominal 5000 ng/mL
[10] = Freeze-thaw after 5th cycle at −20 °C, nominal 6.0 ng/mL
[11] = Freeze-thaw after 5th cycle at −20 °C, nominal 5000 ng/mL
[12] = Freeze-thaw after 5th cycle at −70 °C, nominal 6.0 ng/mL
[13] = Freeze-thaw after 5th cycle at −70 °C, nominal 5000 ng/mL
[14] = Long-term at −20 °C for 42 days, nominal 6.0 ng/mL
[15] = Long-term at −20 °C for 42 days, nominal 5000 ng/mL
[16] = Long-term at −70 °C for 42 days, nominal 6.0 ng/mL
[17] = Long-term at −70 °C for 42 days, nominal 5000 ng/mL
[18] = Wet extract (autosampler) at 4 °C for 65 h, nominal 6.0 ng/mL
[19] = Wet extract (autosampler) at 4 °C for 65 h, nominal 5000 ng/mL
[20] = Wet extract at 25 °C for 4 h, nominal 6.0 ng/mL
[21] = Wet extract at 25 °C for 4 h, nominal 5000 ng/mL

time required to reach peak plasma concentration ([1]; single 400 mg oral dose, fasting): ~ 2 h
Change [2, 6]: 7.17%
Mean stability sample ±SD [2, 6]: 6.43 ± 0.15 ng/mL
Change [2, 7]: −5.81%
Mean stability sample ±SD [2, 7]: 4709.67 ± 72.69 ng/mL
Change [2, 8]: 3.83%
Mean stability sample ±SD [2, 8]: 6.23 ± 0.25 ng/mL
Change [2, 9]: −2.52%
Mean stability sample ±SD [2, 9]: 4874.00 ± 183.04 ng/mL
Change [2, 10]: 2.83%
Mean stability sample ±SD [2, 10]: 6.17 ± 0.22 ng/mL
Change [2, 11]: −4.54%
Mean stability sample ±SD [2, 11]: 4773.50 ± 106.40 ng/mL
Change [2, 12]: 2.83%
Mean stability sample ±SD [2, 12]: 6.17 ± 0.24 ng/mL
Change [2, 13]: −3.90%
Mean stability sample ±SD [2, 13]: 4804.83 ± 218.23 ng/mL
Change [2, 14]: −1.00%
Mean stability sample ±SD [2, 14]: 5.94 ± 0.26 ng/mL
Change [2, 15]: −3.12%
Mean stability sample ±SD [2, 15]: 4844.00 ± 247.40 ng/mL
Change [2, 16]: 3.33%
Mean stability sample ±SD [2, 16]: 6.20 ± 0.23 ng/mL
Change [2, 17]: −2.77%
Mean stability sample ±SD [2, 17]: 4861.50 ± 315.59 ng/mL
Change [2, 18]: 4.00%
Mean stability sample ±SD [2, 18]: 6.24 ± 0.28 ng/mL
Change [2, 19]: −3.24%
Mean stability sample ±SD [2, 19]: 4838.17 ± 209.68 ng/mL
Change [2, 20]: 3.83%
Mean stability sample ±SD [2, 20]: 6.23 ± 0.25 ng/mL
Change [2, 21]: −0.81%
Mean stability sample ±SD [2, 21]: 4959.33 ± 287.84 ng/mL
short-term stability of stock solution (stable up to) [3]: up to 8 h
SMILES: Cc1nnc(C(=O)NC(C)(C)c2nc(C(=O)NCc3ccc(F)cc3)c(O)c(=O)n2C)o1 [raltegravir]
increase of area under the plasma-time curve (AUC) with a high fat meal [4]: about 19%

presence of circulating metabolite in plasma of subject samples ([1]; up to 4 h after oral administration of the drug): complete absence
SMILES: Cc1nnc(C(=O)NC(C)(C)c2nc(C(=O)NCc3ccc(F)cc3)c(O[C@@H]3O[C@H](C(=O)O)[C@@H](O)[C@H](O)[C@H]3O)c(=O)n2C)o1 [RAL-Glu, raltegravir glucuronide]
pharmacological activity [5]: pharmacologically inactive
